Results on 27 molecules are retold here after patent US11312723B2, “Pyranopyrazole and pyrazolopyridine immunomodulators for treatment of autoimmune diseases” (The Rockefeller University, priority 2017, dated 2022).

The target of one assay is Human FXIIa (Homo sapiens (Human), UniProt P00748). The experiment in a line: Factor XIIa (FXIIa) inhibitory activity, chromogenic substrate (Pefachrome XIIa) cleavage. Particulars: 10 min pre-incubation, Pefachrome XIIa 400 μM. The assay is classed as biochemical.
Sequence of Human FXIIa (P00748 373-615): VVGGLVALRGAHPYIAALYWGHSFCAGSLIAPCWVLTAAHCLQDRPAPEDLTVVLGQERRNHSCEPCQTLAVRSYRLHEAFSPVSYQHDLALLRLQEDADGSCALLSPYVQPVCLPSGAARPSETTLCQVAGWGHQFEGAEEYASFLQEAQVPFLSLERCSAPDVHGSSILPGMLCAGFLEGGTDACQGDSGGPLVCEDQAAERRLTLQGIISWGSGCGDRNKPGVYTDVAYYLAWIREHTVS
Sequence of Human FXIIa (P00748 20-372 partner): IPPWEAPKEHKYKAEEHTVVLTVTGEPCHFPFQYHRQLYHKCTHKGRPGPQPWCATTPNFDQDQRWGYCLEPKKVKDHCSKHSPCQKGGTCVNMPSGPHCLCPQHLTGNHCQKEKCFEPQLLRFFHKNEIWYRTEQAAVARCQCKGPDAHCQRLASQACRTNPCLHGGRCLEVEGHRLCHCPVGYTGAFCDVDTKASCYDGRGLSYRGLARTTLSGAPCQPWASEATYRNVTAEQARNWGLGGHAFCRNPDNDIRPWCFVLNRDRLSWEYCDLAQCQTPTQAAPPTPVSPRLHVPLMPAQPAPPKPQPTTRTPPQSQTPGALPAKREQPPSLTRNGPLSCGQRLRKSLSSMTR
Another assay addresses Human alpha-thrombin (Homo sapiens (Human), UniProt P00734). The experiment in a line: Thrombin counterscreen for selectivity, fluorogenic substrate cleavage. The assay is classed as biochemical. Conditions: 10 min pre-incubation, Boc-Val-Pro-Arg-AMC 20 μM. The procedure:
Counterscreens for Selectivity:
Thrombin. In a 96-well white opaque plate, 80 μl of assay buffer was added to each well. Test compounds were added, and serially diluted as above, to generate a concentration range of approximately 1-100 μM. Human alpha-thrombin (Enzyme Research Labs) was diluted in assay buffer to a final concentration of 12.5 nM. 80 μl of this enzyme solution was added to the assay wells. The enzyme/compound mixtures were incubated for 10 minutes at room temperature. Fluorogenic substrate (Boc-Val-Pro-Arg-7-amido-4-methylcoumarin; Sigma) was added to assay wells at a final concentration of 20 μM. The assay plate was spun for 1 minute at 1500 g and then read at 37° C. in a SpectraMax M2 plate reader (λex=380 nm and λem=460 nm). Activity was quantified as the rate of change in fluorescence, which corresponds to the rate of substrate cleavage. IC50 values were determined as the concentration of inhibitor that produced 50% of the rate of change of control wells without any inhibitor. For compounds with activity <1 μM, the assay was repeated with a lower concentration range, typically from 10-1000 nM.

A value given as a limit tells only on which side of the number the result lay.

In general, IC50 refers to the midpoint of a concentration-inhibition curve. Lower therefore signals inhibition by little substance. Turning to `Cc1cccc2c1NCCC2C(=O)n1nc2c(c1N)CCN(S(C)(=O)=O)C2` (stereo not drawn) [Example 34, (3-amino-6-(methylsulfonyl)-4,5,6,7-tetrahydropyrazolo[3,4-c]pyridine-2-yl)(8-methyl-1,2,3,4-tetrahydroquinolin-4-yl)methanone], the results for the IC50 at Human FXIIa and against Human alpha-thrombin were 0.04 µM and 23 µM, respectively.
Turning to `CS(=O)(=O)N1CCc2c(nn(C(=O)C3CCNc4c(F)cccc43)c2N)C1` (stereo not drawn) [Example 37, (3-amino-6-(methylsulfonyl)-4,5,6,7-tetrahydropyrazolo[3,4-c]pyridin-2-yl)(8-fluoro-1,2,3,4-tetrahydroquinolin-4-yl)methanone], the values for the IC50 against Human FXIIa and against Human alpha-thrombin were 0.1 µM and 25 µM, respectively.
For `CC1(C)CC(C(=O)n2nc3c(c2N)CCN(S(C)(=O)=O)C3)c2ccccc2N1` (stereo not drawn) [Example 39, (3-amino-6-(methylsulfonyl)-4,5,6,7-tetrahydropyrazolo[3,4-c]pyridin-2-yl)(2,2-dimethyl-1,2,3,4-tetrahydroquinolin-4-yl)methanone], the values for the IC50 at Human FXIIa and at Human alpha-thrombin were 0.15 µM and 45 µM, respectively.
On to `CS(=O)(=O)N1CCc2c(nn(C(=O)C3CCNc4ncccc43)c2N)C1` (stereo not drawn) [Example 41, (3-amino-6-(methylsulfonyl)-4,5,6,7-tetrahydropyrazolo[3,4-c]pyridin-2-yl)(1,2,3,4-tetrahydro-1,8-naphthyridin-4-yl)methanone], for which the results for the IC50 on Human FXIIa and against Human alpha-thrombin were 1.7 µM and 4.4 µM, respectively.
On to `CC(C)c1ccc2c(c1)C(C(=O)n1nc3c(c1N)CCN(S(C)(=O)=O)C3)CCN2` (stereo not drawn) [Example 45, (3-amino-6-(methylsulfonyl)-4,5,6,7-tetrahydropyrazolo[3,4-c]pyridin-2-yl)(6-isopropyl-1,2,3,4-tetrahydroquinolin-4-yl)methanone], for which the results for the IC50 against Human FXIIa and against Human alpha-thrombin were 2.2 µM and 45 µM, respectively.
In the same order, the values of `CS(=O)(=O)N1CCc2c(nn(C(=O)C3CCNc4ccc(-c5ccccc5)cc43)c2N)C1` (stereo not drawn) [Example 49, (3-amino-6-(methylsulfonyl)-4,5,6,7-tetrahydropyrazolo[3,4-c]pyridin-2-yl)(6-phenyl-1,2,3,4-tetrahydroquinolin-4-yl)methanone] are 11 µM and 17 µM.
The like results for `Cc1cc(F)cc2c1NCCC2C(=O)n1nc2c(c1N)CCN(S(C)(=O)=O)C2` (stereo not drawn) [Example 51, (3-amino-6-(methylsulfonyl)-4,5,6,7-tetrahydropyrazolo[3,4-c]pyridin-2-yl)(6-fluoro-8-methyl-1,2,3,4-tetrahydroquinolin-4-yl)methanone] were, in that order, 0.02 µM and 15 µM.
`CCc1cc(C)c2c(c1)C(C(=O)n1nc3c(c1N)CCN(S(C)(=O)=O)C3)CCN2` (stereo not drawn) [Example 55, (3-amino-6-(methylsulfonyl)-4,5,6,7-tetrahydropyrazolo[3,4-c]pyridin-2-yl)(6-ethyl-8-methyl-1,2,3,4-tetrahydroquinolin-4-yl)methanone]: the IC50 against Human FXIIa was 0.04 µM; against Human alpha-thrombin, greater than 70 µM.
Turning to `CS(=O)(=O)N1CCc2c(nn(C(=O)C3CCNc4c(Cl)cccc43)c2N)C1` (stereo not drawn) [Example 57, (3-amino-6-(methylsulfonyl)-4,5,6,7-tetrahydropyrazolo[3,4-c]pyridin-2-yl)(8-chloro-1,2,3,4-tetrahydroquinolin-4-yl)methanone], the IC50 against Human FXIIa came to 0.05 µM; against Human alpha-thrombin, 16 µM.
In the case of `COc1cccc2c1NCCC2C(=O)n1nc2c(c1N)CCN(S(C)(=O)=O)C2` (stereo not drawn) [Example 61, (3-amino-6-(methylsulfonyl)-4,5,6,7-tetrahydropyrazolo[3,4-c]pyridin-2-yl)(8-methoxy-1,2,3,4-tetrahydroquinolin-4-yl)methanone], the IC50 on Human FXIIa is 0.1 µM; on Human alpha-thrombin, 20 µM.
On to `CS(=O)(=O)N1CCc2c(nn(C(=O)C3CCNc4c3cccc4C(F)(F)F)c2N)C1` (stereo not drawn) [Example 67, (3-amino-6-(methylsulfonyl)-4,5,6,7-tetrahydropyrazolo[3,4-c]pyridin-2-yl)(8-(trifluoromethyl)-1,2,3,4-tetrahydroquinolin-4-yl)methanone], for which the values for the IC50 at Human FXIIa and on Human alpha-thrombin were 0.15 µM and greater than 70 µM, respectively.
Take `Nc1c2c(nn1C(=O)C1CCNc3ccc(F)cc31)CCOC2` (stereo not drawn) [Example 74, (3-amino-6,7-dihydropyrano[4,3-c]pyrazol-2(4H)-yl)(6-fluoro-1,2,3,4-tetrahydroquinolin-4-yl)methanone]: the IC50 was determined as 0.08 µM against Human FXIIa and 50 µM against Human alpha-thrombin.
On to `Cc1cc2c(C(=O)n3nc4c(c3N)CN(C)CC4)cccc2[nH]1` [Example 85, (3-amino-5-methyl-4,5,6,7-tetrahydro-pyrazolo[4,3-c]pyridin-2-yl)(2-methyl-1H-indol-4-yl)methanone], for which the IC50 on Human FXIIa came to 0.03 µM; at Human alpha-thrombin, 60 µM.
The like results for `COC(=O)N1CCc2nn(C(=O)C3CCNc4ccccc43)c(N)c2C1` (stereo not drawn) [Example 87, methyl 3-amino-2-(1,2,3,4-tetrahydro-quinoline-4-carbonyl)-6,7-dihydro-2H-pyrazolo[4,3-c]pyridine-5(4H)-carboxylate] were, in that order, 0.8 µM and greater than 100 µM.
The like results for `CNC(=O)N1CCc2nn(C(=O)C3CCNc4ccccc43)c(N)c2C1` (stereo not drawn) [Example 89, 3-amino-N-methyl-2-(1,2,3,4-tetrahydro-quinoline-4-carbonyl)-6,7-dihydro-2H-pyrazolo[4,3-c]pyridine-5(4H)-carboxamide] were, in that order, 0.8 µM and greater than 80 µM.
For the molecule `CNC(=O)N1CCc2c(c(N)nn2C(=O)C2CCNc3ccccc32)C1` (stereo not drawn) [Example 90, 3-amino-N-methyl-1-(1,2,3,4-tetrahydro-quinoline-4-carbonyl)-6,7-dihydro-1H-pyrazolo[4,3-c]pyridine-5(4H)-carboxamide], the IC50 stood at 1.5 µM at Human FXIIa and 12 µM against Human alpha-thrombin.
As to `CS(=O)(=O)N1CCc2nn(C(=O)C3CCNc4ccccc43)c(N)c2C1` (stereo not drawn) [Example 91, (3-amino-5-(methylsulfonyl)-4,5,6,7-tetrahydro-pyrazolo[4,3-c]pyridin-2-yl)(1,2,3,4-tetrahydro-quinolin-4-yl)methanone], the IC50 against Human FXIIa was 1.5 µM; at Human alpha-thrombin, greater than 70 µM.
Regarding `CCN1CCc2nn(C(=O)C3CCNc4ccccc43)c(N)c2C1` (stereo not drawn) [Example 93, (3-amino-5-ethyl-4,5,6,7-tetrahydro-pyrazolo[4,3-c]pyridin-2-yl)(1,2,3,4-tetrahydro-quinolin-4-yl)methanone], the values for the IC50 against Human FXIIa and against Human alpha-thrombin were 1.3 µM and greater than 100 µM, respectively.
On to `CCN1CCc2c(c(N)nn2C(=O)C2CCNc3ccccc32)C1` (stereo not drawn) [Example 94, (3-amino-5-ethyl-4,5,6,7-tetrahydro-pyrazolo[4,3-c]pyridin-1-yl)(1,2,3,4-tetrahydro-quinolin-4-yl)methanone], for which the IC50 on Human FXIIa was greater than 50 µM; at Human alpha-thrombin, greater than 80 µM.
As for `CC(=O)N1CCc2nn(C(=O)C3CCNc4ccccc43)c(N)c2C1` (stereo not drawn) [Example 95, 1-(3-amino-2-(1,2,3,4-tetrahydro-quinoline-4-carbonyl)-6,7-dihydro-2H-pyrazolo[4,3-c]pyridin-5(4H)-yl)ethanone], the figures for the IC50 against Human FXIIa and on Human alpha-thrombin were 0.7 µM and greater than 50 µM, respectively.
`CN1CCc2nn(C(=O)C3CCCc4[nH]ccc43)c(N)c2C1` (stereo not drawn) [Example 97, (3-amino-5-methyl-4,5,6,7-tetrahydro-pyrazolo[4,3-c]pyridin-2-yl)(4,5,6,7-tetrahydro-1H-indol-4-yl)methanone]: the IC50 was 8.5 µM against Human FXIIa and greater than 80 µM on Human alpha-thrombin.
As for `CN1CCc2c(c(N)nn2C(=O)C2CCCc3[nH]ccc32)C1` (stereo not drawn) [Example 98, (3-amino-5-methyl-4,5,6,7-tetrahydro-pyrazolo[4,3-c]pyridin-1-yl)(4,5,6,7-tetrahydro-1H-indol-4-yl)methanone], the IC50 is 20 µM at Human FXIIa and 70 µM on Human alpha-thrombin.
On to `CC(=O)N1CCc2c(nn(C(=O)c3cccc4[nH]c(C)cc34)c2N)C1` [Example 99, 1-(3-amino-2-(2-methyl-1H-indole-4-carbonyl)-4,5-dihydro-2H-pyrazolo[3,4-c]pyridin-6(7H)-yl)ethanone], for which the results for the IC50 at Human FXIIa and at Human alpha-thrombin were 0.04 µM and greater than 50 µM, respectively.
For `Cc1cc2c(C(=O)n3nc4c(c3N)CCN(S(C)(=O)=O)C4)cccc2[nH]1` [Example 101, (3-amino-6-(methylsulfonyl)-4,5,6,7-tetrahydro-pyrazolo[3,4-c]pyridin-2-yl)(2-methyl-1H-indol-4-yl)methanone], the figures for the IC50 against Human FXIIa and against Human alpha-thrombin were 0.02 µM and 10 µM, respectively.
On to `CS(=O)(=O)N1CCc2c(nn(C(=O)C3CCNc4ccccc43)c2N)C1` (stereo not drawn) [Example 103, (3-amino-6-(methylsulfonyl)-4,5,6,7-tetrahydro-pyrazolo[3,4-c]pyridin-2-yl)(1,2,3,4-tetrahydro-quinolin-4-yl)methanone], for which the IC50 amounted to 0.35 µM against Human FXIIa and 30 µM against Human alpha-thrombin.
As for `CS(=O)(=O)N1CCc2c(N)nn(C(=O)C3CCNc4ccccc43)c2C1` (stereo not drawn) [Example 104, (3-amino-6-(methylsulfonyl)-4,5,6,7-tetrahydro-pyrazolo[3,4-c]pyridin-1-yl)(1,2,3,4-tetrahydro-quinolin-4-yl)methanone], the IC50 is 80 µM on Human FXIIa and greater than 85 µM against Human alpha-thrombin.
With `Nc1c2c(nn1C(=O)C1CCNc3ccccc31)CN(S(=O)(=O)c1ccccc1)CC2` (stereo not drawn) [Example 105, (3-amino-6-(phenylsulfonyl)-4,5,6,7-tetrahydro-pyrazolo[3,4-c]pyridin-2-yl)(1,2,3,4-tetrahydro-quinolin-4-yl)methanone], the IC50 against Human FXIIa was 1 µM; at Human alpha-thrombin, greater than 100 µM.
